US10227342B2 (ARIAD PHARMACEUTICALS, INC., priority 2014, dated 2019)

Key:
Assay type in all cases: cell-based
[1] = molecular target: human EGFR exon 20 insertion ASV (V769_D770insASV) (Homo sapiens (Human), UniProt P00533, INS769ASV); experiment: Ba/F3-EGFR-Exon20-ASV cell anti-proliferative assay (CellTiter 96 MTS, 72 h); settings: Ba/F3-EGFR-Exon20-ASV cells;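 further: Ba/F3 cells bearing the EGFR exon 20 ASV insertion, a line able to proliferate without IL-3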
Method: Ba/F3 cells expressing EGFR exon 20 insertions (named Ba/F3-EGFR-Exon20-NPG or Ba/F3-EGFR-Exon20-ASV) can proliferate in the absence of IL-3. The anti-proliferative activity of compounds were determined as follows: BaF3-EGFR-Exon20 cells (NPG or ASV) seeded in 96 well plates (2500 cells/well) were treated with test compound (dissolved in DMSO) at a series of concentrations (4-fold dilution, top concentration: 10,000 nM). The plates were incubated for 72 h in a 37° C. incubator with 5% CO2, and the number of viable cells in each well were measured indirectly by CellTiter 96® Aqueous One Solution Cell Proliferation Assay (Promega) This assay is a colorimetric method for determining the number of viable cells through measurement of their metabolic activity by detection of enzymatic conversion of tetrazolium salts into blue formazan derivatives. Reagent (20 μL) was added into each well, and the plates were returned to the incubator for 2 h. The absorbance in each well was then measured at 490 nm using an Envision plate reader (Perkin Elmer).

[2] = molecular target: human EGFR E746-A750 deletion and T790M Mutation (DT) (Homo sapiens (Human), UniProt P00533, DEL746-750/T790M); experiment: Ba/F3-EGFR-Del/T790M cell anti-proliferative assay (CellTiter 96 MTS, 72 h); settings: Ba/F3-EGFR-Del/T790M cells; for IC50: read-out: EGFR exon 19 deletion and T790M mutation IC50
Method: An expression vector, pLVX-IRES puro (Clontech) coding for human EGFR E746-A750 deletion and T790M Mutation, was transfected into HEK293 cells by the Trans-Lentiviral ORF Packaging System (Thermo Scientific), to produce virus encoding EGFR exon 19 deletion and T790M mutations. […] Ba/F3 cells expressing EGFR E746-A750 deletion and T790M Mutation (named Ba/F3-EGFR-Del/T790M) can proliferate in the absence of IL-3. The anti-proliferative activity of compounds was determined as follows: BaF3-EGFR-Del/T790M cells seeded in 96 well plates (2500 cells/well) were treated with test compound (dissolved in DMSO) at a series of concentrations (4-fold dilution, top concentration: 10,000 nM). The plates were incubated for 72 h in a 37° C. incubator with 5% CO2, and the number of viable cells in each well were measured indirectly by CellTiter 96® Aqueous One Solution Cell Proliferation Assay (Promega; this assay is a colorimetric method for determining the number of viable cells through measurement of their metabolic activity by detection of enzymatic conversion of tetrazolium salts into blue formazan derivatives). Reagent (20 μL) was added into each well, and the plates were returned to the incubator for 2 h. The absorbance in each well was then measured at 490 nm using an Envision plate reader (Perkin Elmer).

[3] = molecular target: human EGFR L858R and T790M double mutation (LT) (Homo sapiens (Human), UniProt P00533, L858R/T790M); experiment: Ba/F3-EGFR L858R/T790M cell anti-proliferative assay (CellTiter 96 MTS, 72 h); settings: Ba/F3-EGFR L858R/T790M cells; for IC50: read-out: EGFR exon 21 L858R and T790M mutation IC50;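 on all read-outs here: Ba/F3 cells carrying the EGFR L858R/T790M double mutant are able to grow without IL-3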
Method: An expression vector, pLVX-IRES puro (Clontech) coding for human EGFR L858R and T790M double mutation, was transfected into HEK293 cells by the Trans-Lentiviral ORF Packaging System (Thermo Scientific), to produce virus encoding EGFR L858R and T790M double mutations. […] Ba/F3 cells expressing EGFR L858R and T790M double mutation (named Ba/F3-EGFR L858R/T790M) can proliferate in the absence of IL-3. The anti-proliferative activity of compounds was determined as follows: BaF3-EGFR L858R/T790M cells seeded in 96 well plates (2500 cells/well) were treated with test compound (dissolved in DMSO) at a series of concentrations (4-fold dilution, top concentration: 10,000 nM). The plates were incubated for 72 h in a 37° C. incubator with 5% CO2, and the number of viable cells in each well were measured indirectly by CellTiter 96® Aqueous One Solution Cell Proliferation Assay (Promega; this assay is a colorimetric method for determining the number of viable cells through measurement of their metabolic activity by detection of enzymatic conversion of tetrazolium salts into blue formazan derivatives). Reagent (20 μL) was added into each well, and the plates were returned to the incubator for 2 h. The absorbance in each well was then measured at 490 nm using an Envision plate reader (Perkin Elmer).

[4] = molecular target: Her2 exon 20 YVMA insertion (A775_G776ins YVMA) (Homo sapiens (Human), UniProt P04626, INS775YVMA); experiment: Ba/F3-Her2 Exon20 YVMA cell anti-proliferative assay (CellTiter 96 MTS, 72 h); settings: Ba/F3-Her2 Exon20 YVMA cells
Excerpt: Ba/F3 cells expressing Her2 Exon20 YVMA insertions (named Ba/F3-Her2 Exon20 YVMA) can proliferate in the absence of IL-3.

Chain of Her2 exon 20 YVMA insertion (A775_G776ins YVMA) (P04626 other isoform, or with tags, fused parts or gaps ins YVMA behind 775): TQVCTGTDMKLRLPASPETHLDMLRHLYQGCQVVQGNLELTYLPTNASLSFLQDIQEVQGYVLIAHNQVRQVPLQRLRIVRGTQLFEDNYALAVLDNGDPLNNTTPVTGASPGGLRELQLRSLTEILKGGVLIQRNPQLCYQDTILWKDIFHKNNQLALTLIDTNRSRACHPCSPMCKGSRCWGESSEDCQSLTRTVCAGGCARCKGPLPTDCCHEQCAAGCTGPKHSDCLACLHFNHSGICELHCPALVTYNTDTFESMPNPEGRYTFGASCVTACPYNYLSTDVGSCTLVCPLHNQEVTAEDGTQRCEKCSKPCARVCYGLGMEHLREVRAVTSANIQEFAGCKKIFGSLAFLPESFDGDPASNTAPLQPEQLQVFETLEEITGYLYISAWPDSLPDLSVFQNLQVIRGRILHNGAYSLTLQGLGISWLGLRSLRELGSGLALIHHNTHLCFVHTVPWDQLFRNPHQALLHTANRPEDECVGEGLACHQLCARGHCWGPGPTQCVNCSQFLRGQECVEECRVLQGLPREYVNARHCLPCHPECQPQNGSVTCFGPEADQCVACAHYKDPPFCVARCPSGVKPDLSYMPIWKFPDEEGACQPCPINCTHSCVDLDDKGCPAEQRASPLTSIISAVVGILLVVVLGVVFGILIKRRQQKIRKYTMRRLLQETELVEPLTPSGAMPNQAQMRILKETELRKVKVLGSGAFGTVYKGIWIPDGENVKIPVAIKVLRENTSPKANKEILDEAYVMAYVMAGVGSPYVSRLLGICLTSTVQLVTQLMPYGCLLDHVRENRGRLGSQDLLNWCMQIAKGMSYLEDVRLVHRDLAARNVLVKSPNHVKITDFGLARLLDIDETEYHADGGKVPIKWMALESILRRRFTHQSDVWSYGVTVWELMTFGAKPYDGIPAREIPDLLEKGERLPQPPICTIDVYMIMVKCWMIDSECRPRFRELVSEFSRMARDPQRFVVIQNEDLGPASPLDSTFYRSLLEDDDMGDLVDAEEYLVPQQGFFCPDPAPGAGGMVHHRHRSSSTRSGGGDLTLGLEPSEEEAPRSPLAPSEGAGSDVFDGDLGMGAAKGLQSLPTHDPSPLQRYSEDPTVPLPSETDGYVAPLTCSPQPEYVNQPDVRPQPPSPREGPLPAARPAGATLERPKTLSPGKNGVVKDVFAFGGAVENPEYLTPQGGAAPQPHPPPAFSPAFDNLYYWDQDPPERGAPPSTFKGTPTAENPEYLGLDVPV
Chain of human EGFR E746-A750 deletion and T790M Mutation (DT) (P00533 other isoform, or with tags, fused parts or gaps T790M/del E746-A750): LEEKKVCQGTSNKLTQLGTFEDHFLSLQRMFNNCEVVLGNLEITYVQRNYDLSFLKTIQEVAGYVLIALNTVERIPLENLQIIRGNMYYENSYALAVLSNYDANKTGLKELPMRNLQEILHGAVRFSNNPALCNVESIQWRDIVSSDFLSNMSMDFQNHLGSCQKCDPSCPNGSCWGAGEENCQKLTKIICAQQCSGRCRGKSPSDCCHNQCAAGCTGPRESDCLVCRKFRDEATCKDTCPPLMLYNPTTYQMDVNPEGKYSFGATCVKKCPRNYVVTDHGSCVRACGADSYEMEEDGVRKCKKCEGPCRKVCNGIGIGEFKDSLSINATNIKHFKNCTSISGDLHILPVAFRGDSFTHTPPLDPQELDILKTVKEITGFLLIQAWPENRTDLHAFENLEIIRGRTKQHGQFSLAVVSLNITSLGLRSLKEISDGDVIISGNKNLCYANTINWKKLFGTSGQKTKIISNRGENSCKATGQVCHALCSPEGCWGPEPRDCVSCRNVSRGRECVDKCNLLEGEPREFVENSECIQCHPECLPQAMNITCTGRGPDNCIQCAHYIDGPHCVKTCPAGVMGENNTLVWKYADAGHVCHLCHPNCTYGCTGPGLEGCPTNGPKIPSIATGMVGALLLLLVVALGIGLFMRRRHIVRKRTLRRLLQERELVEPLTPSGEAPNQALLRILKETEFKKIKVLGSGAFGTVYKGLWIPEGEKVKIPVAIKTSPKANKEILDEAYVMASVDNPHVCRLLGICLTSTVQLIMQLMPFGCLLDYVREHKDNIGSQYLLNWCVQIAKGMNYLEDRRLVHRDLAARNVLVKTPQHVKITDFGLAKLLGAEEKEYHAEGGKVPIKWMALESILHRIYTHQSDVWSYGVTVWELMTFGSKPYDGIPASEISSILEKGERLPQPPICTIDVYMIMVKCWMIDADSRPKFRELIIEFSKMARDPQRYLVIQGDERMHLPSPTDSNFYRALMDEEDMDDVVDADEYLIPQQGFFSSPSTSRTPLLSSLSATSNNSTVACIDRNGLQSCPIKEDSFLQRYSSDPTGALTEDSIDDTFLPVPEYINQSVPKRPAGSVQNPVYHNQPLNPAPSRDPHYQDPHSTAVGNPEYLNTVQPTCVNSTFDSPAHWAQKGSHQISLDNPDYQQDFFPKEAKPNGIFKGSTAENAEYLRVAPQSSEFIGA
Chain of human EGFR L858R and T790M double mutation (LT) (P00533 25-1210 T790M/L858R): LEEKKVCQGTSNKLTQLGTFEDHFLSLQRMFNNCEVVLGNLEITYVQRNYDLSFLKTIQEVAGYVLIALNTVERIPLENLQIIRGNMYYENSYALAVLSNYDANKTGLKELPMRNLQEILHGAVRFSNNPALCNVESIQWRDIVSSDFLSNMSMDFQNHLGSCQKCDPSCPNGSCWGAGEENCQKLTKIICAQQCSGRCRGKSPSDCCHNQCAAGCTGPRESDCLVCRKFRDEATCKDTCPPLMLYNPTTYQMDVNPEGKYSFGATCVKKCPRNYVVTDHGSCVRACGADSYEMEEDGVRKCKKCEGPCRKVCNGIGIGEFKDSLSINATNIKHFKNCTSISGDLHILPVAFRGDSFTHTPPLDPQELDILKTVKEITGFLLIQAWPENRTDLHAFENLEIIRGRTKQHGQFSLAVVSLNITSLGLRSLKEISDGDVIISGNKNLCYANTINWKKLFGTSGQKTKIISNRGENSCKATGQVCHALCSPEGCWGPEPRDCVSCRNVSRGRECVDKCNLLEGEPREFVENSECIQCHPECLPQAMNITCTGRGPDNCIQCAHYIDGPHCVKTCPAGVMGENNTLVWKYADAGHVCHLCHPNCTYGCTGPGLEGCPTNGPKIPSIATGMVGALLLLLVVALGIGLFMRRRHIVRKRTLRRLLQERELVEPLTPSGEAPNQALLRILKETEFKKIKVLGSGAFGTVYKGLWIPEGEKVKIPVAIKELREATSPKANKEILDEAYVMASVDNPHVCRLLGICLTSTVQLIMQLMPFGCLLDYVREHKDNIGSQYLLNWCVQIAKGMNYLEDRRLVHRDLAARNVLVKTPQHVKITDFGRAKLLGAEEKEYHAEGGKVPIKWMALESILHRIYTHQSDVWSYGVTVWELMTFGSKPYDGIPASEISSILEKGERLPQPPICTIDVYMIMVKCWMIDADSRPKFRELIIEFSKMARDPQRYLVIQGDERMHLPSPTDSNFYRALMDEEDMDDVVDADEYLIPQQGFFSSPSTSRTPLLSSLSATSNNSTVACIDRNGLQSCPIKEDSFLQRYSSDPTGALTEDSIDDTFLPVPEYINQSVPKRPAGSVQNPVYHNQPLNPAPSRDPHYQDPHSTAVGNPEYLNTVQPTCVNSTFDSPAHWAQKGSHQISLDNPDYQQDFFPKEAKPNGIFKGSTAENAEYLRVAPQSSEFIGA
Chain of human EGFR exon 20 insertion ASV (V769_D770insASV) (P00533 other isoform, or with tags, fused parts or gaps ins ASV behind 769): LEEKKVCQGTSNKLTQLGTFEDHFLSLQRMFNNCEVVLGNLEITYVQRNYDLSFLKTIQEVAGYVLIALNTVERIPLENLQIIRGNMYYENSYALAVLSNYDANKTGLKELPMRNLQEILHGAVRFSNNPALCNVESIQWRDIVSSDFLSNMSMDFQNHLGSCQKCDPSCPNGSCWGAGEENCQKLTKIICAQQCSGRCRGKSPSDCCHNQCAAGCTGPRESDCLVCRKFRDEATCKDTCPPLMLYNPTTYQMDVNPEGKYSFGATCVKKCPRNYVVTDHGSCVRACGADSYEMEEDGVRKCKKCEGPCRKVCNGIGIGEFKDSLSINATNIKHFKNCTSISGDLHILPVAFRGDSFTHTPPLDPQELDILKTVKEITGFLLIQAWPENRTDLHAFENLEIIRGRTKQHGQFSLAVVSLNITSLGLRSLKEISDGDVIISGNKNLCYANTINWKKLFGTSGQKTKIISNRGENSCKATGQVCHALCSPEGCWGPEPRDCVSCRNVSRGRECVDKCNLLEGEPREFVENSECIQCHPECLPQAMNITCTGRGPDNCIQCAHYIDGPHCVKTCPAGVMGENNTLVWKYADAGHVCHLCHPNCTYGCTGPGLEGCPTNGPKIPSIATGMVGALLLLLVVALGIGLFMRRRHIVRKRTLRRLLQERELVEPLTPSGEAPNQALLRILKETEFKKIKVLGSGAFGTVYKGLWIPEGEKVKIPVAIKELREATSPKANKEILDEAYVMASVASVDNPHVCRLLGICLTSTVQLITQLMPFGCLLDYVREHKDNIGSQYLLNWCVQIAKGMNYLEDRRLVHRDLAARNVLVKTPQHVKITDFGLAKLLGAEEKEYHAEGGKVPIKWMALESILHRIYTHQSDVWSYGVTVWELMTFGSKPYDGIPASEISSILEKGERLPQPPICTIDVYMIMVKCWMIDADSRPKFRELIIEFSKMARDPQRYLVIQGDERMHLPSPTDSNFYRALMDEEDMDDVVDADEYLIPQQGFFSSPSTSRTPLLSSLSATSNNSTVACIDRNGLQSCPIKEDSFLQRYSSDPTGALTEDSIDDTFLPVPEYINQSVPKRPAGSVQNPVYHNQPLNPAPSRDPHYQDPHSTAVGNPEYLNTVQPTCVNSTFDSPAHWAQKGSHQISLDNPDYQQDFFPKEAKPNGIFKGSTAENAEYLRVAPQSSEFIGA

Row | Compound | IC50 [1] [µM] | IC50 [2] [µM] | IC50 [3] [µM] | IC50 [4] [µM] | EGFR exon 21 L858R and T790M mutation IC50 [3] | EGFR exon 19 deletion and T790M mutation IC50 [2]
1 | C=CC(=O)Nc1cc(Nc2nccc(-c3c(C(N)=O)n(C)c4ccccc34)n2)c(OC)cc1N(C)CCN(C)C [Example 90, 3-(2-((5-acrylamido-4-((2-(dimethylamino)ethyl)(methyl)amino)-2-methoxyphenyl)amino)pyrimidin-4-yl)-1-methyl-1H-indole-2-carboxamide] | 0.1 to 0.5 | < 0.1 | < 0.1 | 0.5 to 1 |  | 
2 | C=CC(=O)Nc1cc(Nc2nccc(-c3c(C(=O)NC)n(C)c4ccccc34)n2)c(OC)cc1N(C)CCN(C)C [Example 91, 3-(2-((5-acrylamido-4-((2-(dimethylamino)ethyl)(methyl)amino)-2-methoxyphenyl)amino)pyrimidin-4-yl)-N,1-dimethyl-1H-indole-2-carboxamide] | 0.1 to 0.5 | < 0.1 |  | 0.5 to 1 | B (Group B compounds have an IC50 value for the indicated mutant between about 100 to about 500 nM) | 
3 | C=CC(=O)Nc1cc(Nc2nccc(-c3c(C(=O)N(C)C)n(C)c4ccccc34)n2)c(OC)cc1N(C)CCN(C)C [Example 92, 3-(2-((5-acrylamido-4-((2-(dimethylamino)ethyl)(methyl)amino)-2-methoxyphenyl)amino)pyrimidin-4-yl)-N,N,1-trimethyl-1H-indole-2-carboxamide] | < 0.1 | < 0.1 | < 0.1 | 0.1 to 0.5 |  | 
4 | C=CC(=O)Nc1cc(Nc2nccc(-c3c(C(=O)NCCOC)n(C)c4ccccc34)n2)c(OC)cc1N(C)CCN(C)C [Example 93, 3-(2-((5-acrylamido-4-((2-(dimethylamino)ethyl)(methyl)amino)-2-methoxyphenyl)amino)pyrimidin-4-yl)-N-(2-methoxyethyl)-1-methyl-1H-indole-2-carboxamide] | 0.5 to 1 |  |  | > 1 | C (Group C compounds have an IC50 value for the indicated mutant between greater than about 500 to about 1 μM) | B (Group B compounds have an IC50 value for the indicated mutant between about 100 to about 500 nM)
5 | C=CC(=O)Nc1cc(Nc2nccc(-c3cn(C)c4cc(-c5cnn(C)c5)ccc34)n2)c(OC)cc1N(C)CCN(C)C [Example 95, N-(2-((2-(dimethylamino)ethyl)(methyl)amino)-4-methoxy-5-((4-(1-methyl-6-(1-methyl-1H-pyrazol-4-yl)-1H-indol-3-yl)pyrimidin-2-yl)amino)phenyl)acrylamide] | < 0.1 | < 0.1 | < 0.1 | 0.1 to 0.5 |  | 
6 | C=CC(=O)Nc1cc(Nc2ncc(P(C)(C)=O)c(-c3cn(C)c4ccccc34)n2)c(OC)cc1N(C)CCN(C)C [Example 96, N-(2-((2-(dimethylamino)ethyl)(methyl)amino)-5-((5-(dimethylphosphoryl)-4-(1-methyl-1H-indol-3-yl)pyrimidin-2-yl)amino)-4-methoxyphenyl)acrylamide] | > 1 |  |  | > 1 | B (Group B compounds have an IC50 value for the indicated mutant between about 100 to about 500 nM) | B (Group B compounds have an IC50 value for the indicated mutant between about 100 to about 500 nM)
7 | C=CC(=O)Nc1cc(Nc2ncc(NC(=O)NC)c(-c3cn(C)c4ccccc34)n2)c(OC)cc1N(C)CCN(C)C [Example 99, N-(2-((2-(dimethylamino)ethyl)(methyl)amino)-4-methoxy-5-((4-(1-methyl-1H-indol-3-yl)-5-(3-methylureido)pyrimidin-2-yl)amino)phenyl)acrylamide] | 0.5 to 1 | > 1 | > 1 | > 1 |  | 
